Data reported in US20240132484A1, “BROAD SPECTRUM ANTIVIRAL COMPOUNDS TARGETING THE SKI COMPLEX” (priority 2020, published 2024).
Values joined by “and” are separate entries in the source; they are usually repeats but may differ in a detail not shown here. Identical values can stand only once. Like-named read-outs stand apart in the source and are kept apart here.

Key:
SARS2 = format: cell-based, SARS-CoV-2; conditions: for Percentage Infection Relative to Appropriate DMSO Control with Avg Background Subtraction: single well

## CCN(CC)CCN(Cc1ccc(C)o1)Cc1cccs1 [SILCS24]
Cells (nuclei count); 1 μM, toxicity data, 100=DMSO control
  Relative cell count to DMSO controls, Average 1 μM: 133.02
Cells (nuclei count); 5 μM, toxicity data, 100=DMSO control
  Relative cell count to DMSO controls, Average 5 μM: 124
Cells (nuclei count); 10 μM, toxicity data, 100=DMSO control
  Relative cell count to DMSO controls, Average 10 μM: 120.3
Cells (nuclei count); 25 μM, toxicity data, 100=DMSO control
  Relative cell count to DMSO controls, Average 25 μM: 96.21
Cells (nuclei count); 50 μM, toxicity data, 100=DMSO control
  Relative cell count to DMSO controls, Average 50 μM: 76.48
Cells (nuclei count); Average of Exp 1-3, n 9, 1 uM
  Toxicity Data, Average, Mean: 133.02%
Cells (nuclei count); Average of Exp 1-3, n 9, 5 uM
  Toxicity Data, Average, Mean: 124.00%
Cells (nuclei count); Average of Exp 1-3, n 9, 10 uM
  Toxicity Data, Average, Mean: 120.30%
Cells (nuclei count); Average of Exp 1-3, n 9, 25 uM
  Toxicity Data, Average, Mean: 96.21%
Cells (nuclei count); Average of Exp 1-3, n 9, 50 uM
  Toxicity Data, Average, Mean: 76.48%
Cells (nuclei count); average value over the 5 tested concentrations (1 to 50 uM)
  Relative cell count to DMSO controls, Average (for correlation analysis): 110.00
SARS2; Average of Exp 1-3, n 9, 1 uM
  Infection Data, Average, Mean: 68.53%
SARS2; Average of Exp 1-3, n 9, 5 uM
  Infection Data, Average, Mean: 71.54%
SARS2; Average of Exp 1-3, n 9, 10 uM
  Infection Data, Average, Mean: 70.96%
SARS2; Average of Exp 1-3, n 9, 25 uM
  Infection Data, Average, Mean: 35.04%
SARS2; Average of Exp 1-3, n 9, 50 uM
  Infection Data, Average, Mean: 19.26%
SARS2; Exp 1 (SMW475), 1 uM
  Percentage Infection Relative to Appropriate DMSO Control with Avg Background Subtraction: 124.65% and 102.70% and 66.42%
SARS2; Exp 1 (SMW475), 5 uM
  Percentage Infection Relative to Appropriate DMSO Control with Avg Background Subtraction: 90.16% and 99.17% and 50.26%
SARS2; Exp 1 (SMW475), 10 uM
  Percentage Infection Relative to Appropriate DMSO Control with Avg Background Subtraction: 93.85% and 91.06% and 50.31%
SARS2; Exp 1 (SMW475), 50 uM
  Percentage Infection Relative to Appropriate DMSO Control with Avg Background Subtraction: 20.92% and 16.99% and 16.36%
SARS2; Exp 2 (SMW477), 1 uM
  Percentage Infection Relative to Appropriate DMSO Control with Avg Background Subtraction: 88.56% and 86.90% and 93.54%
SARS2; Exp 2 (SMW477), 5 uM
  Percentage Infection Relative to Appropriate DMSO Control with Avg Background Subtraction: 78.38% and 98.62% and 72.17%
SARS2; Exp 2 (SMW477), 10 uM
  Percentage Infection Relative to Appropriate DMSO Control with Avg Background Subtraction: 54.07% and 57.64% and 38.68%
SARS2; Exp 2 (SMW477), 50 uM
  Percentage Infection Relative to Appropriate DMSO Control with Avg Background Subtraction: 18.59% and 11.16% and 9.24%
SARS2; Exp 3 (SMW478), 10 uM
  Percentage Infection Relative to Appropriate DMSO Control with Avg Background Subtraction: 97.16% and 81.93% and 73.95%
SARS2; SARS2, 1 μM
  Percentage Inhibition Average 1 μM: 31.47%
SARS2; SARS2, 1 μM, 100=DMSO control
  Screening data (Relative infection to DMSO controls) Average 1 μM: 68.53
SARS2; SARS2, 5 μM
  Percentage Inhibition Average 5 μM: 28.46%
SARS2; SARS2, 5 μM, 100=DMSO control
  Screening data (Relative infection to DMSO controls) Average 5 μM: 71.54
SARS2; SARS2, 10 μM
  Percentage Inhibition Average 10 μM: 29.04%
SARS2; SARS2, 10 μM, 100=DMSO control
  Screening data (Relative infection to DMSO controls) Average 10 μM: 70.96
SARS2; SARS2, 25 μM
  Percentage Inhibition Average 25 μM: 64.96%
SARS2; SARS2, 25 μM, 100=DMSO control
  Screening data (Relative infection to DMSO controls) Average 25 μM: 35.04
SARS2; SARS2, 50 μM
  Percentage Inhibition Average 50 μM: 80.74%
SARS2; SARS2, 50 μM, 100=DMSO control
  Screening data (Relative infection to DMSO controls) Average 50 μM: 19.26
SARS2; SARS2, average over 1 to 50 uM, 100=DMSO control
  Average (relative infection to DMSO over the 5 tested concentrations): 53.07

## CC1=C(C(=O)OC2CCCCCCC2)C(c2ccc3c(c2)OCO3)NC(=O)N1 (centres unmarked) [UMB22_5]
SARS2
  SARS2 antiviral activity: improved activity than ring open analogs

## O=C(NC1CCCCCC1)c1cn[nH]c1-c1ccc2c(c1)OCCO2 [UMB22_16]
SARS2
  SARS2 antiviral activity: improved activity than ring open analogs
